According to ChEMBL document CHEMBL4052588, “Design of a Biased Potent Small Molecule Inhibitor of the Bromodomain and PHD Finger-Containing (BRPF) Proteins Suitable for Cellular and in Vivo Studies” (J Med Chem, 2017):

Tests used:
Peregrin (Homo sapiens) = target: T1, Peregrin (Homo sapiens) (UniProt P55201)
T1 sequence (whole entry): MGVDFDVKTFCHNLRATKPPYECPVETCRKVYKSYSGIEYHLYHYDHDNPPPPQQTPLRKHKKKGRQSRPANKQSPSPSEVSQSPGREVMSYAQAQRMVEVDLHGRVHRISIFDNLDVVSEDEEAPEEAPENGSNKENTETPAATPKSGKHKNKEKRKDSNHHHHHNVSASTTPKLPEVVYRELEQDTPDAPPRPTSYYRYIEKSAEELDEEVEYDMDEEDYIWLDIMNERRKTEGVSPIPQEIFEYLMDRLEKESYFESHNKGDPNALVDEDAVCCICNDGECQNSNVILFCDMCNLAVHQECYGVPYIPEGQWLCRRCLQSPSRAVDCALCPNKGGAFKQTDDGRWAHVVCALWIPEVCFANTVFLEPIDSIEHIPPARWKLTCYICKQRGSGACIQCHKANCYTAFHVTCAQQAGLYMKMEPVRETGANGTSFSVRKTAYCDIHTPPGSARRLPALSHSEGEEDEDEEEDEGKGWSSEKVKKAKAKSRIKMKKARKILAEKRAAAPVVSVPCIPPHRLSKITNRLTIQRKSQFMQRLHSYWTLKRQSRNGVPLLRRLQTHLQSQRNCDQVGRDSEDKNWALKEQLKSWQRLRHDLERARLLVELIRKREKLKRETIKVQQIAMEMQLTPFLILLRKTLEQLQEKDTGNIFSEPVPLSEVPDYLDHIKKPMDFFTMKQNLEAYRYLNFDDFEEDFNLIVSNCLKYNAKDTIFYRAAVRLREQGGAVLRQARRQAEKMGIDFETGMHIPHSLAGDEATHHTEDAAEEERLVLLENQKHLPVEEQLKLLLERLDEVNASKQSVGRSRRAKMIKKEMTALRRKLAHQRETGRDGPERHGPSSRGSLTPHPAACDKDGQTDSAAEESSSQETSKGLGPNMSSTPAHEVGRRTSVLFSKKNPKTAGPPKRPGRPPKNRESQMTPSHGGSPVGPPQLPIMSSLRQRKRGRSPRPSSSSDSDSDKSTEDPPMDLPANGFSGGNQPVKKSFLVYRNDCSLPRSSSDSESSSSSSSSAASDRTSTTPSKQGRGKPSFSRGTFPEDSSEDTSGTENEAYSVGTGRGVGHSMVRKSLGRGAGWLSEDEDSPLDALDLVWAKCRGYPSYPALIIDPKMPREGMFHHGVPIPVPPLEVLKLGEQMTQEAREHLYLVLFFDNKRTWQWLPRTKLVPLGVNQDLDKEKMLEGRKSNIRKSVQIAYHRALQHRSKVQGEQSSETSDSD

[1] = target: T2, Bromodomain and PHD finger-containing protein 3 (Homo sapiens) (UniProt Q9ULD4)
T2 sequence (whole entry): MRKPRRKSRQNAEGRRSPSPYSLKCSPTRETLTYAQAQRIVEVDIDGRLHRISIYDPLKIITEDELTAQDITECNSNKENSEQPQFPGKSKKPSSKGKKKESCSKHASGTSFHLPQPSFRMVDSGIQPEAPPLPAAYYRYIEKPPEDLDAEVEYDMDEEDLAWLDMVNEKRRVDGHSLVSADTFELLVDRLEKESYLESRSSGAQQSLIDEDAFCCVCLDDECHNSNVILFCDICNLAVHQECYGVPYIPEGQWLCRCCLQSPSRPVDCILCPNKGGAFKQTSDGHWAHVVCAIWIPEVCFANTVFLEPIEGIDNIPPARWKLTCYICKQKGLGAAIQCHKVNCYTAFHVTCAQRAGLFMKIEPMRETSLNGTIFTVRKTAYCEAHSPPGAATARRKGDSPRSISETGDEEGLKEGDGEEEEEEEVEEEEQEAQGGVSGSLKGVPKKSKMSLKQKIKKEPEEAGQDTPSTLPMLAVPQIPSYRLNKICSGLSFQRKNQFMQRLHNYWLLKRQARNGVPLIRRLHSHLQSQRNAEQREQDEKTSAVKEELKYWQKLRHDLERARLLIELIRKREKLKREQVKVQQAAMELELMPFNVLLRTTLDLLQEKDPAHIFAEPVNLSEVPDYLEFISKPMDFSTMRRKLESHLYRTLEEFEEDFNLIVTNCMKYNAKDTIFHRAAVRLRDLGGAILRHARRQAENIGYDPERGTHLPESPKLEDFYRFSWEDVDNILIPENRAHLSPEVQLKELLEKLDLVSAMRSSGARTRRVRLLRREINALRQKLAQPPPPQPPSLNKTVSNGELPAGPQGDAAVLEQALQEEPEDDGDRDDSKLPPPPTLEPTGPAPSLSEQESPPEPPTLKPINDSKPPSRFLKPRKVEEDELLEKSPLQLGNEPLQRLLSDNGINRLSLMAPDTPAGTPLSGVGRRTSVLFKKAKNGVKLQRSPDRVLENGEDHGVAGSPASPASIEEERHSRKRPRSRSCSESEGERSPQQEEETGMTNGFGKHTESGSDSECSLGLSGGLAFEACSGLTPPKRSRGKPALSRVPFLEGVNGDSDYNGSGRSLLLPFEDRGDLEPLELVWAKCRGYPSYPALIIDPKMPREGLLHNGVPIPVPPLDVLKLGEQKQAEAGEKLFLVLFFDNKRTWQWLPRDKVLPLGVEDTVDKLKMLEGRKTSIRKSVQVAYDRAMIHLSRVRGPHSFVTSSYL

[2] = target: T3, Bromodomain-containing protein 1 (Homo sapiens) (UniProt O95696)
T3 sequence (whole entry): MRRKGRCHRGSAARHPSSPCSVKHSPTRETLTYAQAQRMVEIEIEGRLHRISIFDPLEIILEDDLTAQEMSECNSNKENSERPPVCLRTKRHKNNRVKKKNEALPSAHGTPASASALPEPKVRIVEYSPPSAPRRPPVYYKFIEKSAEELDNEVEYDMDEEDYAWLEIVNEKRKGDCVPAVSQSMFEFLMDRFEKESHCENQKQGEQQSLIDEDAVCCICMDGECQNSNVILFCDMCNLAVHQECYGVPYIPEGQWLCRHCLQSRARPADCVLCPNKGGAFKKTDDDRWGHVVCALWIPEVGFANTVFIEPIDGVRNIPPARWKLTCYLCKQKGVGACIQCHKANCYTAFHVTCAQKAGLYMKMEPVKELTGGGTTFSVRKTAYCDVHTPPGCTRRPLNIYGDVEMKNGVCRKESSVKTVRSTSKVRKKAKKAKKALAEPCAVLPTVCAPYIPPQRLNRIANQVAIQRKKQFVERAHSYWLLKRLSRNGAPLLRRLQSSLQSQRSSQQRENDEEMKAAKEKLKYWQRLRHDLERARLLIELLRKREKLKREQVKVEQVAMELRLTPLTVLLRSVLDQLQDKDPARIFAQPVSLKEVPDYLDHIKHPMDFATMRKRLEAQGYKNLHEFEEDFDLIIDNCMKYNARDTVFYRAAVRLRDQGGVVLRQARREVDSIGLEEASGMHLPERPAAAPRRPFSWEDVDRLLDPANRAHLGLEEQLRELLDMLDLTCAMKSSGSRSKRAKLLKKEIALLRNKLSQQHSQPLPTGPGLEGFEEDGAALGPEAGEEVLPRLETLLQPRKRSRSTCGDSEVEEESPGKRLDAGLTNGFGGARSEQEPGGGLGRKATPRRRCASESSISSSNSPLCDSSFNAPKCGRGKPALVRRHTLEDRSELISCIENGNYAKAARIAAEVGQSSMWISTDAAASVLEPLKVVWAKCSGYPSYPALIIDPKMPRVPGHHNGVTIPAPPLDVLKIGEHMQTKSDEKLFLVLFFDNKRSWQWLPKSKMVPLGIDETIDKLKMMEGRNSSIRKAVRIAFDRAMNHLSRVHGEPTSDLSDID

Peregrin = target: T4, Peregrin (Homo sapiens, UniProt P55201); test: Inhibition of human BRPF1 expressed in Escherichia coli BL21 after 1 hr by BROMOscan assay
T4 sequence (P55201 whole entry): T1 sequence (whole entry)

[3] = target: T5, Bromodomain-containing protein 1 (Homo sapiens, UniProt O95696); test: Inhibition of human BRPF2-BRD1 expressed in Escherichia coli BL21 after 1 hr by BROMOscan assay
T5 sequence (O95696 whole entry): T3 sequence (whole entry)

[4] = target: T6, Bromodomain-containing protein 4 (Homo sapiens, UniProt O60885); test: Inhibition of human BRD4-BD1 expressed in Escherichia coli BL21 after 1 hr by BROMOscan assay
[5] = target: T7, Bromodomain-containing protein 9 (Homo sapiens) (UniProt Q9H8M2)
T7 sequence (whole entry): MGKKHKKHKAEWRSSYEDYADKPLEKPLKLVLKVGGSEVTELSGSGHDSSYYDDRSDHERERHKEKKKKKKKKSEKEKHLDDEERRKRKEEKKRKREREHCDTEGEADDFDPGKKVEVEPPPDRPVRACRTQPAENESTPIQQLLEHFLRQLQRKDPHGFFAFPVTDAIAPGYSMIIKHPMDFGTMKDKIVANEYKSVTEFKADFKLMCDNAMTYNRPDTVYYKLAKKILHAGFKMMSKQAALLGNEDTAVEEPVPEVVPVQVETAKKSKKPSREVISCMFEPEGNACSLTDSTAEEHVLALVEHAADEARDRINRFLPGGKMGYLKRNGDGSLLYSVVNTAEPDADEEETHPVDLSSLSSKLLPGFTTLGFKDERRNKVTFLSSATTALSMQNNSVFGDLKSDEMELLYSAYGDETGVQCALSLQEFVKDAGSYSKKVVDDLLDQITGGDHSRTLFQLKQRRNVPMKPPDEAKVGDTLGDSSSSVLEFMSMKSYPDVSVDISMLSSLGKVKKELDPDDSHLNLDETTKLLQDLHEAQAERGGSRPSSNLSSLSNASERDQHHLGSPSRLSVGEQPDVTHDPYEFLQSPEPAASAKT

[6] = target: T6, Bromodomain-containing protein 4
[7] = target: T8, Bromodomain-containing protein 9 (Homo sapiens, UniProt Q9H8M2); test: Inhibition of human BRD9 expressed in Escherichia coli BL21 after 1 hr by BROMOscan assay
T8 sequence (Q9H8M2 whole entry): T7 sequence (whole entry)

[8] = target: T9, Bromodomain and PHD finger-containing protein 3 (Homo sapiens, UniProt Q9ULD4); test: Inhibition of human BRPF3 expressed in Escherichia coli BL21 after 1 hr by BROMOscan assay
T9 sequence (Q9ULD4 whole entry): T2 sequence (whole entry)

| ΔTm [2] [°C] | IC50 (Peregrin) [nM] | ΔTm [5] [°C] | ΔTm [6] [°C] | Compound | also measured |
| --- | --- | --- | --- | --- | --- |
| 1.3 | – | – | – | Cn1c(=O)ccc2cc(NS(=O)(=O)c3ccc(C#N)cc3F)ccc21 | ΔTm (Peregrin (Homo sapiens)): 3.6 °C; ΔTm [1]: 1.2 °C |
| – | 2100 | – | – | Cn1c(=O)ccc2cc(N)ccc21 | – |
| 2.5 | 44 | – | – | Cn1c(=O)ccc2cc(NS(=O)(=O)c3ccc(Cl)c(Cl)c3)ccc21 | IC50 [3]: 230 nM; ΔTm (Peregrin (Homo sapiens)): 4.9 °C |
| – | 190 | – | – | Cc1cc2cc(N)ccc2n(C)c1=O | – |
| – | – | – | – | COc1ccccc1S(=O)(=O)Nc1ccc2c(c1)cc(C)c(=O)n2C | IC50 [4]: 600 nM |
| 2.1 | – | 2.5 | 1.1 | Cn1c(=O)ccc2cc(NS(=O)(=O)c3cccc(C#N)c3)ccc21 | – |
| 0.9 | – | 2.9 | 1.3 | Cn1c(=O)ccc2cc(NS(=O)(=O)c3ccccc3C#N)ccc21 | – |
| 1.5 | 15 | – | – | CCn1c(=O)c(C)cc2cc(NS(=O)(=O)c3ccc(C#N)cc3)ccc21 | ΔTm (Peregrin (Homo sapiens)): 5.2 °C; ΔTm [1]: 1.2 °C |
| 1.9 | – | 3.5 | 1.1 | Cn1c(=O)ccc2cc(NS(=O)(=O)c3ccccc3)ccc21 | IC50 [7]: 220 nM; IC50 [4]: 1700 nM; ΔTm [1]: 1.5 °C |
| 2.4 | – | 2.3 | 1.4 | Cn1c(=O)ccc2cc(NS(=O)(=O)c3ccc(C#N)cc3)ccc21 | IC50 [8]: 1000 nM; IC50 [4]: 2800 nM |
| 3.3 | 180 | – | – | CCc1cc2cc(NS(=O)(=O)c3ccc(C#N)cc3)ccc2n(C)c1=O | – |
